Columns and labels:
Rattus norvegicus [1] = assay: Tested for the change in systolic blood pressure administered at 25 ug/kg intravenously in anesthetized rats; format: functional, Artery
Rattus norvegicus [2] = assay: Maximum rate of rise of the left ventricular isovolumetric pressure administered at 25 uM/kg iv in anesthetized rats; format: functional, Heart left ventricle
Rattus norvegicus [3] = assay: Tested for the change in diastolic blood pressure administered at 25 ug/kg intravenously in anesthetized rats; format: functional, Artery
Rattus norvegicus [4] = assay: Tested for change in heart rate administered at 25 uM/kg iv in anesthetized rats; format: functional
Rattus norvegicus [5] = assay: Tested for change in heart rate administered at 12 uM/kg iv in anesthetized rats; format: functional
Rattus norvegicus [6] = assay: Maximum rate of rise of the left ventricular isovolumetric pressure administered at 12 uM/kg iv in anesthetized rats; format: functional, Heart left ventricle
Rattus norvegicus [7] = assay: Tested for the change in systolic blood pressure administered at 12 ug/kg intravenously in anesthetized rats; format: functional, Artery
Rattus norvegicus [8] = assay: Tested for the change in diastolic blood pressure administered at 12 ug/kg intravenously in anesthetized rats; format: functional, Artery
Rattus norvegicus [9] = assay: Tested for the change in diastolic blood pressure administered at 5 ug/kg intravenously in anesthetized rats; format: functional, Artery
Rattus norvegicus [10] = assay: Maximum rate of rise of the left ventricular isovolumetric pressure administered at 5 uM/kg iv in anesthetized rats; format: functional, Heart left ventricle
Rattus norvegicus [11] = assay: Tested for the change in systolic blood pressure administered at 5 ug/kg intravenously in anesthetized rats; format: functional, Artery
Rattus norvegicus [12] = assay: Tested for change in heart rate administered at 5 uM/kg iv in anesthetized rats; format: functional
Rattus norvegicus [13] = assay: Tested for the change in systolic blood pressure administered at 8 ug/kg intravenously in anesthetized rats; format: functional, Artery
Rattus norvegicus [14] = assay: Tested for change in heart rate administered at 8 uM/kg iv in anesthetized rats; format: functional
Rattus norvegicus [15] = assay: Tested for the change in diastolic blood pressure administered at 8 ug/kg intravenously in anesthetized rats; format: functional, Artery
Rattus norvegicus [16] = assay: Maximum rate of rise of the left ventricular isovolumetric pressure administered at 8 uM/kg iv in anesthetized rats; format: functional, Heart left ventricle

With `N=C(N)NCCN1CCCCCCC1` [GUANETHIDINE] the Blood pressure (Rattus norvegicus [1]) was -27 mmHg, the dp/dt (Rattus norvegicus [2]) was -863 mmHg s-1 and the Blood pressure (Rattus norvegicus [3]) was -19 mmHg. For the same compound, the Heart rate (Rattus norvegicus [4]) was -18 beats min-1.

`C[N+](C)(C)CCCCCC[N+](C)(C)C.[Cl-].[Cl-]` [HEXAMETHONIUM CHLORIDE] was tested, and the Heart rate (Rattus norvegicus [5]) was -48 beats min-1, the dp/dt (Rattus norvegicus [6]) was -4040 mmHg s-1 and the Blood pressure (Rattus norvegicus [7]) was -44 mmHg. The Blood pressure (Rattus norvegicus [8]) was -34 mmHg.

In the case of `COc1ccc(Cc2nccc3cc(OC)c(OC)cc23)cc1OC` [PAPAVERINE], the Blood pressure (Rattus norvegicus [9]) is reported as -18 mmHg, the dp/dt (Rattus norvegicus [10]) is reported as -604 mmHg s-1 and the Blood pressure (Rattus norvegicus [11]) is reported as -23 mmHg. For the same compound, the Heart rate (Rattus norvegicus [12]) was -21 beats min-1.

For `COC(=O)[C@H]1[C@H]2C[C@@H]3c4[nH]c5cc(OC)ccc5c4CCN3C[C@H]2C[C@@H](OC(=O)c2cc(OC)c(OC)c(OC)c2)[C@@H]1OC` [RESERPINE], the Blood pressure (Rattus norvegicus [13]) was -31 mmHg, the Heart rate (Rattus norvegicus [14]) was -47 beats min-1 and the Blood pressure (Rattus norvegicus [15]) was -24 mmHg. For the same compound, the dp/dt (Rattus norvegicus [16]) was -1580 mmHg s-1.

— ChEMBL document CHEMBL1127074, “Novel hypotensive agents from Verbesina caracasana. 2. Synthesis and pharmacology of caracasanamide” (1993)
